In brackets after ≈: the same amount, converted by molar mass.
Columns and labels:
[1] = tested on: gram-positive and gram-negative bacteria; assay: Antibacterial activity (in words); assay type: cell-based; details: sensitive (and resistant) bacteria
Protocol: (§1) [α]D^22 + 38°, (c 0.85, water).

[2] = tested on: Klebsiella pneumoniae PCI 602; assay: Minimal inhibitory concentration, agar dilution streak method; assay type: cell-based; details: PCI602, nutrient agar, 37° C, 18 hours
Protocol: as §1
(§2) *Agar Agar dilution streak method (nutrient agar, 37° C, 18 hours)
(§3) *Agar dilution streak method (nutrient agar, 37° C, 18 hours).

[3] = tested on: Pseudomonas aeruginosa 99; assay: as above; assay type: cell-based; details: nutrient agar, 37° C, 18 hours, read-out: Minimal inhibitory concentration
Protocol: as §1, §2, §3

Salmonella typhosa T-63 = assay: as above; assay type: cell-based; details: Salmonella enterica, nutrient agar, 37° C, 18 hours
Protocol: as §1, §2, §3

Escherichia coli NIHJ = assay: as above; assay type: cell-based; details: nutrient agar, 37° C, 18 hours
Protocol: as §1, §2, §3

Sarcina lutea PCI 1001 = assay: as above; assay type: cell-based; details: Micrococcus luteus, PCI1001; nutrient agar, 37° C, 18 hours; read-out: Minimal inhibitory concentration
Protocol: as §1, §2, §3

[4] = tested on: Escherichia coli K-12 R-5; assay: as above; assay type: cell-based; details: K12R5, nutrient agar, 37° C, 18 hours
Protocol: as §1, §2, §3

[5] = tested on: Bacillus subtilis NRRL B-558; assay: as above; assay type: cell-based; details: NRRLB558, nutrient agar, 37° C, 18 hours
Protocol: as §1, §2, §3

Proteus rettgeri GN 311 = assay: as above; assay type: cell-based; details: Providencia rettgeri, GN311; nutrient agar, 37° C, 18 hours
Protocol: as §1, §2, §3

[6] = tested on: Escherichia coli J 5 R 11-2; assay: as above; assay type: cell-based; details: J5R112, 18 h, read-out: Minimal inhibitory concentration
Protocol: as §1, §2, §3

Proteus rettgeri GN 466 = assay: as above; assay type: cell-based; details: Providencia rettgeri, GN466; nutrient agar, 37° C, 18 hours
Protocol: as §1, §2, §3

[7] = tested on: Escherichia coli K-12 C 600 R 135; assay: as above; assay type: cell-based; details: 18 h, read-out: Minimal inhibitory concentration
Protocol: as §1, §2, §3

[8] = tested on: Mycobacterium smegmatis ATCC 607; assay: as above; assay type: cell-based; details: Mycolicibacterium smegmatis, ATCC607; nutrient agar, 37° C, 48 hours; read-out: Minimal inhibitory concentration
in vivo = details: mouse, iv
[9] = tested on: Pseudomonas aeruginosa A 3; assay: Minimal inhibitory concentration, agar dilution streak method; assay type: cell-based; details: A3, nutrient agar, 37° C, 18 hours, read-out: Minimal inhibitory concentration
Protocol: as §2, §3

[10] = tested on: Escherichia coli K-12 W 677; assay: as above; assay type: cell-based; details: K12W677, nutrient agar, 37° C, 18 hours, read-out: Minimal inhibitory concentration
Protocol: as §2, §3

[11] = tested on: Klebsiella pneumoniae type 22 #3038; assay: as above; assay type: cell-based; details: for MIC: Klebsiella pneumoniae, nutrient agar, 37° C, 18 hours
Protocol: as §2, §3

[12] = tested on: Escherichia coli K-12 ML 1410 R 81; assay: as above; assay type: cell-based; details: 18 h, read-out: Minimal inhibitory concentration
Protocol: as §2, §3

[13] = tested on: Escherichia coli K-12 LA 290 R 64; assay: as above; assay type: cell-based; details: nutrient agar, 37° C, 18 hours, read-out: Minimal inhibitory concentration
Protocol: as §2, §3

[14] = tested on: Escherichia coli K-12 ML 1410; assay: as above; assay type: cell-based; details: K12ML1410, nutrient agar, 37° C, 18 hours, read-out: Minimal inhibitory concentration
Protocol: as §2, §3

[15] = tested on: Escherichia coli K-12 ML 1630; assay: as above; assay type: cell-based; details: K12ML1630, nutrient agar, 37° C, 18 hours, read-out: Minimal inhibitory concentration
Protocol: as §2, §3

[16] = tested on: Pseudomonas aeruginosa GN 315; assay: as above; assay type: cell-based; details: GN315, nutrient agar, 37° C, 18 hours, read-out: Minimal inhibitory concentration
Protocol: as §2, §3

[17] = tested on: Escherichia coli K-12 JR 66/W 677; assay: as above; assay type: cell-based; details: for MIC: Escherichia coli, 18 h, read-out: Minimal inhibitory concentration
Protocol: as §2, §3

[18] = tested on: Pseudomonas aeruginosa No.12; assay: as above; assay type: cell-based; details: nutrient agar, 37° C, 18 hours, read-out: Minimal inhibitory concentration
Protocol: as §2, §3

[19] = tested on: Escherichia coli K-12 LA 290 R 56; assay: as above; assay type: cell-based; details: 18 h, read-out: Minimal inhibitory concentration
Protocol: as §2, §3

Escherichia coli K-12 = assay: as above; assay type: cell-based; details: K12, nutrient agar, 37° C, 18 hours, read-out: Minimal inhibitory concentration
Protocol: as §2, §3

[20] = tested on: Pseudomonas aeruginosa TI-13; assay: as above; assay type: cell-based; details: TI13, nutrient agar, 37° C, 18 hours, read-out: Minimal inhibitory concentration
Protocol: as §2, §3

[21] = tested on: Staphylococcus aureus FDA 209P; assay: as above; assay type: cell-based; details: FDA209P, nutrient agar, 37° C, 18 hours, read-out: Minimal inhibitory concentration
Protocol: as §2, §3

[22] = tested on: Escherichia coli K-12 ML 1629; assay: as above; assay type: cell-based; details: K12ML1629, nutrient agar, 37° C, 18 hours, read-out: Minimal inhibitory concentration
Protocol: as §2, §3

[23] = tested on: Escherichia coli K-12 LA 290 R 55; assay: as above; assay type: cell-based; details: 18 h, read-out: Minimal inhibitory concentration
Protocol: as §2, §3

[24] = strain resistant to butirosin B

Row | SMILES | MIC [2] | MIC [3] | MIC (Salmonella typhosa T-63) | MIC (Escherichia coli NIHJ) | MIC (Sarcina lutea PCI 1001) | MIC [4] | MIC [5] | MIC (Proteus rettgeri GN 311) | MIC [6] | MIC (Proteus rettgeri GN 466) | MIC [7] | MIC [8] | MIC [9] | MIC [10] | MIC [11] | MIC [12] | MIC [13] | MIC [14] | MIC [15] | MIC [16] | further results
1 | NCC[C@H](O)C(=O)N[C@@H]1C[C@H](N)[C@@H](O[C@H]2O[C@H](CN)CC[C@H]2N)[C@H](O[C@@H]2O[C@H](CO)[C@@H](O)[C@H]2O)[C@H]1O [AHB-dideoxyribostamycin, 1-N-[(S)-4-amino-2-hydroxybutyryl]-3',4'-dideoxyribostamycin] | 0.78 µg/mL (≈ 1.49 µM) | 25 µg/mL (≈ 47.7 µM) | 0.39 µg/mL (≈ 0.745 µM) | 1.56 µg/mL (≈ 2.98 µM) | 25 µg/mL (≈ 47.7 µM) | 6.25 µg/mL (≈ 11.9 µM) | < 0.39 µg/mL | 12.5 µg/mL (≈ 23.9 µM) | < 0.39 µg/mL | 3.12 µg/mL (≈ 5.96 µM) | 0.78 µg/mL (≈ 1.49 µM) | < 0.39 µg/mL | 6.25 µg/mL (≈ 11.9 µM) | 0.78 µg/mL (≈ 1.49 µM) | 3.12 µg/mL (≈ 5.96 µM) | 1.56 µg/mL (≈ 2.98 µM) | 1.56 µg/mL (≈ 2.98 µM) | 0.78 µg/mL (≈ 1.49 µM) | 0.78 µg/mL (≈ 1.49 µM) | > 100 µg/mL | antibacterial activity compared with parent or reference substance [1]: strongly enhanced antibacterial activity as compared with that of ribostamycin and 3',4'-dideoxyribostamycin and was comparable to that of butirosin B; LD50 (in vivo): > 100 mg/kg; effectiveness against Klebsiella pneumoniae type 22 #3038 [11, 24]: effective; effectiveness against Escherichia coli K-12 JR 66/W 677 [17, 24]: effective; MIC [18]: 6.25 µg/mL (≈ 11.9 µM); MIC [19]: < 0.39 µg/mL; MIC (Escherichia coli K-12): 1.56 µg/mL (≈ 2.98 µM); MIC [20]: 12.5 µg/mL (≈ 23.9 µM); MIC [21]: 1.56 µg/mL (≈ 2.98 µM); MIC [22]: 1.56 µg/mL (≈ 2.98 µM); MIC [23]: 1.56 µg/mL (≈ 2.98 µM)
2 | NC[C@H]1O[C@H](O[C@H]2[C@H](O)[C@@H](O)[C@H](N)C[C@@H]2N)[C@H](N)[C@@H](O)[C@@H]1O [Neamine, neamine] | 12.5 µg/mL (≈ 38.8 µM) | > 100 µg/mL | 3.12 µg/mL (≈ 9.68 µM) | 12.5 µg/mL (≈ 38.8 µM) | > 100 µg/mL | > 100 µg/mL | 0.78 µg/mL (≈ 2.42 µM) | 100 µg/mL (≈ 310 µM) | > 100 µg/mL | 25 µg/mL (≈ 77.6 µM) | 12.5 µg/mL (≈ 38.8 µM) | 12.5 µg/mL (≈ 38.8 µM) | > 100 µg/mL | 6.25 µg/mL (≈ 19.4 µM) | > 100 µg/mL | > 100 µg/mL | 6.25 µg/mL (≈ 19.4 µM) | 12.5 µg/mL (≈ 38.8 µM) | > 100 µg/mL | > 100 µg/mL | MIC [17]: > 100 µg/mL; MIC [18]: > 100 µg/mL; MIC [19]: 12.5 µg/mL (≈ 38.8 µM); MIC (Escherichia coli K-12): 6.25 µg/mL (≈ 19.4 µM); MIC [20]: > 100 µg/mL; MIC [21]: 6.25 µg/mL (≈ 19.4 µM); MIC [22]: > 100 µg/mL; MIC [23]: 5.25 µg/mL (≈ 16.3 µM)
3 | NC[C@H]1O[C@H](O[C@H]2[C@H](O[C@@H]3O[C@H](CO)[C@@H](O)[C@H]3O)[C@@H](O)[C@H](N)C[C@@H]2N)[C@H](N)[C@@H](O)[C@@H]1O [Ribostamycin, 5-0-β-D-ribofuranosyl-neamine] | 1.56 µg/mL (≈ 3.43 µM) | > 100 µg/mL | 1.56 µg/mL (≈ 3.43 µM) | 6.25 µg/mL (≈ 13.8 µM) | 100 µg/mL (≈ 220 µM) | 50 µg/mL (≈ 110 µM) | 3.12 µg/mL (≈ 6.87 µM) | 12.5 µg/mL (≈ 27.5 µM) | > 100 µg/mL | 6.25 µg/mL (≈ 13.8 µM) | 1.56 µg/mL (≈ 3.43 µM) | 6.25 µg/mL (≈ 13.8 µM) | > 100 µg/mL | 1.56 µg/mL (≈ 3.43 µM) | > 100 µg/mL | > 100 µg/mL | 1.56 µg/mL (≈ 3.43 µM) | 3.12 µg/mL (≈ 6.87 µM) | > 100 µg/mL | > 100 µg/mL | MIC [17]: > 100 µg/mL; MIC [18]: > 100 µg/mL; MIC [19]: 3.12 µg/mL (≈ 6.87 µM); MIC (Escherichia coli K-12): 3.12 µg/mL (≈ 6.87 µM); MIC [20]: > 100 µg/mL; MIC [21]: 3.12 µg/mL (≈ 6.87 µM); MIC [22]: > 100 µg/mL; MIC [23]: 3.12 µg/mL (≈ 6.87 µM)
